Values of other authors in patent US8450379B2, “Methods for treating migraine” (Corcept Therapeutics, Inc., priority 2002, dated 2013).

How the values were obtained:
[1] = molecular target: T1, Mineralocorticoid receptors (MRs) (Homo sapiens, UniProt P08235); conditions: MR versus GR
T1 sequence (P08235 1-984): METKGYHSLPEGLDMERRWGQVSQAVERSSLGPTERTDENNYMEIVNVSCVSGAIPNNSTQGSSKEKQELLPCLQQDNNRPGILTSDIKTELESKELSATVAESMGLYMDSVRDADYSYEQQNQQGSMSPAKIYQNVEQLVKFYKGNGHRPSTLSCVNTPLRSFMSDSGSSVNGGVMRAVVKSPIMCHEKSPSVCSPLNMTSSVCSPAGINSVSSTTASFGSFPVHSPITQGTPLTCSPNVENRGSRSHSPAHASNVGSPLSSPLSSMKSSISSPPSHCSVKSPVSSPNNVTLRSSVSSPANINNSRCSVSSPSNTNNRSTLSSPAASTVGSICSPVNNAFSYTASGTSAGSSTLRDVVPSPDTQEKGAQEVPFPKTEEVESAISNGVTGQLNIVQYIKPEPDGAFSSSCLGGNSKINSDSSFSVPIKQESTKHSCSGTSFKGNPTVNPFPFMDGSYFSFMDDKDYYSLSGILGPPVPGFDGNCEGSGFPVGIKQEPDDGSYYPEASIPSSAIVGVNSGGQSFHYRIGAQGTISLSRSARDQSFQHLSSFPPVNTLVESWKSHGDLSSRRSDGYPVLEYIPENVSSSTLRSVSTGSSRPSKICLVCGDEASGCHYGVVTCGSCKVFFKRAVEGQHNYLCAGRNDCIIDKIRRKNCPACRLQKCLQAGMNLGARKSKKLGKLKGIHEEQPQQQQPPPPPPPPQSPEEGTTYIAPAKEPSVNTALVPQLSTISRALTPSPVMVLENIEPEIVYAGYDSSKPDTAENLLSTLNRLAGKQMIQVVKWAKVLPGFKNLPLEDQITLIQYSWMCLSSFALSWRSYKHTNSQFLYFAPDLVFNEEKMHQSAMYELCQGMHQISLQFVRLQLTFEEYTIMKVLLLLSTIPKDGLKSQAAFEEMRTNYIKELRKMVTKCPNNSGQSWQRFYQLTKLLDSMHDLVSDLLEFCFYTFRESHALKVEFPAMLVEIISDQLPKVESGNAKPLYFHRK

[2] = molecular target: T2, glucocorticoid (GR) receptors (Homo sapiens, UniProt P04150)
T2 sequence (P04150 1-777): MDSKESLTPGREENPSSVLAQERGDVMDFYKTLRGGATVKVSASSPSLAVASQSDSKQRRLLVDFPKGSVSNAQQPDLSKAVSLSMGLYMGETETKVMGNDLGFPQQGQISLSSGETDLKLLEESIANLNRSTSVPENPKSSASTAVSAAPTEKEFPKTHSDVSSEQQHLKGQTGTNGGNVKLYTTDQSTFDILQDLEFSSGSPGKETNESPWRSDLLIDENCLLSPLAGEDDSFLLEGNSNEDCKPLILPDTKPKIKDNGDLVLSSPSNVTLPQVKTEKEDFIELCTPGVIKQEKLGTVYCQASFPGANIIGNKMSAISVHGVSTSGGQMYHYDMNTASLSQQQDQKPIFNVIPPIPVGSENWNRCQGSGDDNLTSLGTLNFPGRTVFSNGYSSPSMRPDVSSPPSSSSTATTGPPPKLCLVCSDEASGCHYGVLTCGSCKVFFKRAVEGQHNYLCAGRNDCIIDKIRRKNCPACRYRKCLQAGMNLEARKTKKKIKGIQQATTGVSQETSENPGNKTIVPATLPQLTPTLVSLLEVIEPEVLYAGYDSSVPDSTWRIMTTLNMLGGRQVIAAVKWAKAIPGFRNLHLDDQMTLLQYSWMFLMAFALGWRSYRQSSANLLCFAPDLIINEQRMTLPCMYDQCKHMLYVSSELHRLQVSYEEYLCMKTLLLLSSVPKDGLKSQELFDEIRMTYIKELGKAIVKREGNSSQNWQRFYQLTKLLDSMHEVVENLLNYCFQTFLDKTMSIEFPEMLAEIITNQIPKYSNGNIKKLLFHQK

progesterone receptors = molecular target: T3, progesterone receptors (Homo sapiens, UniProt P06401)
T3 sequence (P06401 1-933): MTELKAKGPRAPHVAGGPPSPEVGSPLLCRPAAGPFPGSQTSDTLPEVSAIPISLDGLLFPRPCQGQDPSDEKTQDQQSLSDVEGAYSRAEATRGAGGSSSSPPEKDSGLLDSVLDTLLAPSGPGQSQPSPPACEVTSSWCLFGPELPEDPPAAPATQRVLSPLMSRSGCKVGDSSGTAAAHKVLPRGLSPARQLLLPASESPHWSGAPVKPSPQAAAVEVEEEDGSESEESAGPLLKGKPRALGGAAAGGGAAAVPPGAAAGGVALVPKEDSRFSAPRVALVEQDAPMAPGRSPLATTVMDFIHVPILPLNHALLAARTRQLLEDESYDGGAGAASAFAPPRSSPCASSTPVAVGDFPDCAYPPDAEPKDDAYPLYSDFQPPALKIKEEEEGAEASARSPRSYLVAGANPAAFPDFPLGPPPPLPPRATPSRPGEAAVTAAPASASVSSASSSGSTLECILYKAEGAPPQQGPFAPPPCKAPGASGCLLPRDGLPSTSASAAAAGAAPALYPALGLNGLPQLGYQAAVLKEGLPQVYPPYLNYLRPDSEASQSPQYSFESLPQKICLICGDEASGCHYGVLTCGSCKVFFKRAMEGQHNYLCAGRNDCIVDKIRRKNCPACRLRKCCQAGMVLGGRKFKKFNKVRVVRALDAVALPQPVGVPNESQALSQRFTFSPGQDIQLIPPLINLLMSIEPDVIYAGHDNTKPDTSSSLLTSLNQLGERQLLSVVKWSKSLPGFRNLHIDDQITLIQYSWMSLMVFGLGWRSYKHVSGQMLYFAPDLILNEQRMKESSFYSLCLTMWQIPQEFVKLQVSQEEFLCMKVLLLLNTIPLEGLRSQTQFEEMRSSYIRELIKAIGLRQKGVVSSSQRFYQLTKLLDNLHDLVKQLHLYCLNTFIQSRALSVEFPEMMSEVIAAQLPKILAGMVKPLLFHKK

[3] = one study (Kawai)

Compound	affinity of MR for cortisol relative to GR binding of glucocorticoids [1]	antagonism of glucocorticoid (GR) receptor [2]	antagonism of progesterone receptor (progesterone receptors)	fraction of the daily dose excreted in the urine [3]
C[C@]12CCC(=O)C=C1CC[C@@H]1[C@@H]2[C@@H](O)C[C@@]2(C)[C@H]1CC[C@]2(O)C(=O)CO [cortisol]	ten-fold higher affinity			
CC#C[C@]1(O)CC[C@H]2[C@@H]3CCC4=CC(=O)CCC4=C3[C@@H](c3ccc(OCCN(C)C)cc3)C[C@@]21C [RU009, 11β-(4-dimethylaminoethoxyphenyl)-17α-propynyl-17β-hydroxy-4,9-estradien-3-one]		GR antagonist effects		
CC#C[C@]1(O)CC[C@H]2[C@@H]3CCC4=CC(=O)CCC4=C3[C@@H](c3ccc(N(C)C)cc3)C[C@@]21C [Mifepristone, (11β,17β) 11[4 (dimethylamino)phenyl]-17 hydroxy-17 (1 propynyl)estra-4,9 dien-3 one]		powerful antagonist	powerful antagonist	less than 0.5 % of the daily dose
